Where “and” joins values, the source holds several entries; their conditions need not be identical. Equal values may be shown once. Inconclusive results and toxic doses are left out.
Test system: P388 leukemia ip, CD2F1 mice, survival T/C
Assay: NCI In Vivo Anticancer Drug Screen. Data for tumor model P388 Leukemia (intraperitoneal) in CD2F1 (CDF1) mice
Details: endpoint: median survival time, higher = longer survival
Method in brief: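 Mice carrying the transplanted tumor received test compound or vehicle. Survival was recorded in each group, and the value is the treated-group measurement divided by that of the vehicle-treated control group.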

[1] = dose: 60.0 mg/kg/injection, schedule: Q01DX005 (ip), vehicle: saline with Tween-80
[2] = dose: 120.0 mg/kg/injection, schedule: Q01DX005 (ip), vehicle: saline with Tween-80
[3] = dose: 240.0 mg/kg/injection, schedule: Q01DX005 (ip), vehicle: saline with Tween-80
[4] = dose: 100.0 mg/kg/injection, schedule: Q01DX009 (ip), vehicle: saline with Tween-80
[5] = dose: 50.0 mg/kg/injection, schedule: Q01DX005 (ip), vehicle: saline with Tween-80
[6] = dose: 100.0 mg/kg/injection, schedule: Q01DX005 (ip), vehicle: saline with Tween-80
[7] = dose: 200.0 mg/kg/injection, schedule: Q01DX005 (ip), vehicle: saline with Tween-80
[8] = dose: 25.0 mg/kg/injection, schedule: Q01DX009 (ip), vehicle: saline
[9] = dose: 50.0 mg/kg/injection, schedule: Q01DX009 (ip), vehicle: saline
[10] = dose: 100.0 mg/kg/injection, schedule: Q01DX009 (ip), vehicle: saline
[11] = dose: 50.0 mg/kg/injection, schedule: Q01DX009 (ip), vehicle: Klucel (hydroxypropylcellulose) (HPC)
[12] = dose: 100.0 mg/kg/injection, schedule: Q01DX009 (ip), vehicle: Klucel (hydroxypropylcellulose) (HPC)
[13] = dose: 200.0 mg/kg/injection, schedule: Q01DX009 (ip), vehicle: Klucel (hydroxypropylcellulose) (HPC)
[14] = dose: 50.0 mg/kg/injection, schedule: Q01DX005 (ip), vehicle: Klucel (hydroxypropylcellulose) (HPC)
[15] = dose: 100.0 mg/kg/injection, schedule: Q04DX003 (ip), vehicle: saline

## Cc1ccc([Se]CCBr)cc1
dose: 25.0 mg/kg/injection, schedule: Q01DX001 (ip), vehicle: saline
  T/C: 108 % of control
dose: 50.0 mg/kg/injection, schedule: Q01DX001 (ip), vehicle: saline
  T/C: 101 % of control
dose: 100.0 mg/kg/injection, schedule: Q01DX001 (ip), vehicle: saline
  T/C: 96 % of control

## COC(=O)C(C)c1[nH]c2ccccc2c1[Se]c1ccccc1 (centres undefined)
dose: 100.0 mg/kg/injection, schedule: Q01DX001 (ip), vehicle: saline with Tween-80
  T/C: 102 % of control
dose: 200.0 mg/kg/injection, schedule: Q01DX001 (ip), vehicle: saline with Tween-80
  T/C: 106 % of control
dose: 400.0 mg/kg/injection, schedule: Q01DX001 (ip), vehicle: saline with Tween-80
  T/C: 94 % of control

## NNC(=O)c1ccccc1CO
[1]
  T/C: 96 % of control
[2]
  T/C: 102 % of control
[3]
  T/C: 113 % of control

## c1cncc(-c2cc(-c3cc(-c4cccnc4)n[nH]3)[nH]n2)c1
dose: 60.0 mg/kg/injection, schedule: Q01DX005 (ip), vehicle: Klucel (hydroxypropylcellulose) (HPC)
  T/C: 103 % of control
dose: 120.0 mg/kg/injection, schedule: Q01DX005 (ip), vehicle: Klucel (hydroxypropylcellulose) (HPC)
  T/C: 103 % of control
dose: 240.0 mg/kg/injection, schedule: Q01DX005 (ip), vehicle: Klucel (hydroxypropylcellulose) (HPC)
  T/C: 91 % of control

## Cc1ccccc1N1CC2CC3C=CC2(C1)O3 (centres undefined)
[1]
  T/C: 104 % of control
[2]
  T/C: 97 % of control
[3]
  T/C: 97 % of control

## O=C1CSC(=O)N1c1cccc(C(F)(F)F)c1
dose: 50.0 mg/kg/injection, schedule: Q01DX009 (ip), vehicle: saline with Tween-80
  T/C: 104 % of control
[4]
  T/C: 97 % of control

## O=C(O)C(Cc1cccc(F)c1)NC(=O)C(F)(F)F (centres undefined)
dose: 6.25 mg/kg/injection, schedule: Q01DX009 (ip), vehicle: saline
  T/C: 98 % of control

## Cc1ccc(S(=O)(=O)OCC(COS(=O)(=O)c2ccc(C)cc2)C(C)(C)C)cc1
[5]
  T/C: 101 % of control
[6]
  T/C: 104 % of control
[7]
  T/C: 107 % of control

## CNC(=O)Nc1ccncc1
dose: 12.5 mg/kg/injection, schedule: Q01DX009 (ip), vehicle: saline
  T/C: 112 % of control
[8]
  T/C: 102 % of control
[9]
  T/C: 100 % of control

## CC12CCc3ccccc3C1=Nc1ccccc12 (centres undefined)
[5]
  T/C: 103 % of control
[6]
  T/C: 104 % of control
[7]
  T/C: 91 % of control

## [Cl][Pt]([Cl])([Cl])[Cl].c1ccc2[nH]cnc2c1.c1ccc2[nH]cnc2c1
dose: 1.56 mg/kg/injection, schedule: Q01DX005 (ip), vehicle: saline with Tween-80
  T/C: 87 % of control
dose: 3.12 mg/kg/injection, schedule: Q01DX005 (ip), vehicle: saline with Tween-80
  T/C: 97 % of control
dose: 6.25 mg/kg/injection, schedule: Q01DX005 (ip), vehicle: saline with Tween-80
  T/C: 94 % of control
[5]
  T/C: 99 % of control and 96 % of control

## O=C(/C=C/c1ccccc1)Oc1cc([N+](=O)[O-])cc([N+](=O)[O-])c1
dose: 100.0 mg/kg/injection, schedule: Q04DX002 (ip), vehicle: saline with Tween-80
  T/C: 112 % of control
dose: 200.0 mg/kg/injection, schedule: Q04DX002 (ip), vehicle: saline with Tween-80
  T/C: 105 % of control

## C/C=C\C(/C=C/C)(C(=O)OCCN(C)C)C(/C=C\C)(/C=C/C)C(=O)OCCN(C)C (centres undefined)
[5]
  T/C: 100 % of control
[6]
  T/C: 100 % of control
[7]
  T/C: 91 % of control

## Clc1ccc(C#Cc2ccc(Cl)cc2)cc1
dose: 3.13 mg/kg/injection, schedule: Q01DX009 (ip), vehicle: saline with Tween-80
  T/C: 109 % of control
dose: 6.25 mg/kg/injection, schedule: Q01DX009 (ip), vehicle: saline with Tween-80
  T/C: 113 % of control

## O=C(NC1CCCCC1)C(=NC1CCCCC1)c1cc(Cl)c(Cl)c(Cl)c1Cl
dose: 50.0 mg/kg/injection, schedule: Q04DX003 (ip), vehicle: saline with Tween-80
  T/C: 98 % of control
dose: 100.0 mg/kg/injection, schedule: Q04DX003 (ip), vehicle: saline with Tween-80
  T/C: 98 % of control
dose: 200.0 mg/kg/injection, schedule: Q04DX003 (ip), vehicle: saline with Tween-80
  T/C: 87 % of control

## CN1Cc2cc(Cl)ccc2N(C)Cc2cc(Cl)ccc21
[5]
  T/C: 101 % of control
[6]
  T/C: 90 % of control
[7]
  T/C: 92 % of control

## CN1C(=O)CC([Se]c2ccccc2)C1=O (centres undefined)
dose: 6.25 mg/kg/injection, schedule: Q04DX003 (ip), vehicle: Klucel (hydroxypropylcellulose) (HPC)
  T/C: 107 % of control and 97 % of control
dose: 12.5 mg/kg/injection, schedule: Q04DX003 (ip), vehicle: Klucel (hydroxypropylcellulose) (HPC)
  T/C: 103 % of control and 104 % of control
dose: 25.0 mg/kg/injection, schedule: Q04DX003 (ip), vehicle: Klucel (hydroxypropylcellulose) (HPC)
  T/C: 99 % of control and 105 % of control
dose: 50.0 mg/kg/injection, schedule: Q04DX003 (ip), vehicle: Klucel (hydroxypropylcellulose) (HPC)
  T/C: 100 % of control
dose: 100.0 mg/kg/injection, schedule: Q04DX003 (ip), vehicle: Klucel (hydroxypropylcellulose) (HPC)
  T/C: 105 % of control

## O=C([O-])c1ccccc1[O-].[Cu+2].c1cnc2c(c1)ccc1cccnc12
dose: 100.0 mg/kg/injection, schedule: Q04DX002 (ip), vehicle: Klucel (hydroxypropylcellulose) (HPC)
  T/C: 109 % of control

## CCN(CC)C(=O)C1CCN(Cc2c[nH]c3ccccc23)CC1
[8]
  T/C: 99 % of control
[9]
  T/C: 104 % of control
[10]
  T/C: 107 % of control

## CN1C(=O)Cc2ccccc21
dose: 25.0 mg/kg/injection, schedule: Q01DX009 (ip), vehicle: Klucel (hydroxypropylcellulose) (HPC)
  T/C: 99 % of control
[11]
  T/C: 101 % of control
[12]
  T/C: 105 % of control
[13]
  T/C: 99 % of control

## O=S(=O)(c1ccc(Br)cc1)S(=O)(=O)c1ccc(Br)cc1
[9]
  T/C: 87 % of control
[10]
  T/C: 92 % of control
dose: 200.0 mg/kg/injection, schedule: Q01DX009 (ip), vehicle: saline
  T/C: 95 % of control

## CC1CCC2C(C)C3C(CC4C5CCC6CC(O)CCC6(C)C5CCC43CO)N2C1 (centres undefined)
[14]
  T/C: 101 % of control
dose: 100.0 mg/kg/injection, schedule: Q01DX005 (ip), vehicle: Klucel (hydroxypropylcellulose) (HPC)
  T/C: 108 % of control
dose: 200.0 mg/kg/injection, schedule: Q01DX005 (ip), vehicle: Klucel (hydroxypropylcellulose) (HPC)
  T/C: 113 % of control

## CC(=O)OC1C=CC(SC23CC4CC(CC(C4)C2)C3)N(C(C)=O)C1SC12CC3CC(CC(C3)C1)C2 (centres undefined)
[11]
  T/C: 103 % of control
[12]
  T/C: 105 % of control
[13]
  T/C: 99 % of control

## CC(=O)CC(=O)N1CCN(C(=O)CC(C)=O)CC1
[15]
  T/C: 104 % of control
dose: 200.0 mg/kg/injection, schedule: Q04DX003 (ip), vehicle: saline
  T/C: 100 % of control
dose: 400.0 mg/kg/injection, schedule: Q04DX003 (ip), vehicle: saline
  T/C: 100 % of control

## C[S+](C)CCCNC(=O)c1csc(-c2csc(-c3cscn3)n2)n1
dose: 6.25 mg/kg/injection, schedule: Q01DX005 (ip), vehicle: saline
  T/C: 104 % of control
dose: 12.5 mg/kg/injection, schedule: Q01DX005 (ip), vehicle: saline
  T/C: 96 % of control

## C=[CH][Sn]([CH]=C)([CH2]C)[CH2]C
dose: 50.0 mg/kg/injection, schedule: Q01DX005 (ip), vehicle: saline
  T/C: 102 % of control
dose: 100.0 mg/kg/injection, schedule: Q01DX005 (ip), vehicle: saline
  T/C: 104 % of control
dose: 200.0 mg/kg/injection, schedule: Q01DX005 (ip), vehicle: saline
  T/C: 114 % of control

## COc1ccc(/C(C)=C\C(=O)O)cc1
[4]
  T/C: 90 % of control
dose: 200.0 mg/kg/injection, schedule: Q01DX009 (ip), vehicle: saline with Tween-80
  T/C: 100 % of control
dose: 400.0 mg/kg/injection, schedule: Q01DX009 (ip), vehicle: saline with Tween-80
  T/C: 100 % of control

## O=C1CSCc2sccc21
[1]
  T/C: 94 % of control
[2]
  T/C: 106 % of control
[3]
  T/C: 101 % of control

## NNC1=Nc2ccccc2N=C2CCSCC21 (centres undefined)
[11]
  T/C: 97 % of control
[12]
  T/C: 112 % of control
[13]
  T/C: 108 % of control

## CCN(CC)CCOC(=O)c1c(C)cc(C)cc1C
dose: 25.0 mg/kg/injection, schedule: Q04DX003 (ip), vehicle: saline
  T/C: 100 % of control
dose: 50.0 mg/kg/injection, schedule: Q04DX003 (ip), vehicle: saline
  T/C: 106 % of control
[15]
  T/C: 93 % of control

## Cc1cc(N/N=C/c2ccc([N+](=O)[O-])cc2)c2cc3c(cc2n1)OCO3
dose: 12.5 mg/kg/injection, schedule: Q01DX005 (ip), vehicle: Klucel (hydroxypropylcellulose) (HPC)
  T/C: 100 % of control
dose: 25.0 mg/kg/injection, schedule: Q01DX005 (ip), vehicle: Klucel (hydroxypropylcellulose) (HPC)
  T/C: 102 % of control
[14]
  T/C: 101 % of control and 104 % of control

Reference: PubChem BioAssay AID330 (DTP/NCI, 2004)
